Measured values taken from ChEMBL document CHEMBL4651402, “Screening of ~5500 FDA-approved drugs and clinical candidates for anti-SARS-CoV-2 activity” (2021).

Test system: SARS-CoV-2
Assay: microbe, parasite or virus in culture
Conditions: Severe acute respiratory syndrome coronavirus 2, Vero C1008, 48 h

| SMILES | IC50 [µM] | IC50 (read-out: pIC50 (converted)) [µM] |
| --- | --- | --- |
| COc1ccc(-c2ccc(=N)n(CCCC(=O)O)n2)cc1 [GABAZINE] | > 20 | > 20 |
| CCOC(=O)c1ccc(OC(=O)CCCCCNC(=N)N)cc1 [GABEXATE] | > 20 | > 20 |
| Oc1noc2c1CCNC2 [GABOXADOL] | > 20 | > 20 |
| COc1ccc2c3c1O[C@H]1C[C@@H](O)C=C[C@@]31CCN(C)C2 [GALANTAMINE] | > 20 | > 20 |
| C[C@]12CC[C@H](O)CC1=CC[C@@H]1[C@@H]2CC[C@]2(C)C(n3cnc4ccccc43)=CC[C@@H]12 [GALETERONE] | > 20 | > 20 |
| O=C(O)c1cc(O)c(O)c(O)c1 [GALLIC ACID] | > 20 | > 20 |
| O=C(O[C@@H]1Cc2c(O)cc(O)cc2O[C@H]1c1cc(O)c(O)c(O)c1)c1cc(O)c(O)c(O)c1 [GALLOCATECHIN GALLATE] | > 20 | > 20 |
| COc1ccc(CCN(C)CCCC(C#N)(c2cc(OC)c(OC)c(OC)c2)C(C)C)cc1OC (stereo unspecified) [GALLOPAMIL] | > 20 | > 20 |
| Cc1cccc(-c2nn3c(c2-c2ccnc4ccc(C(N)=O)cc24)CCC3)n1 [GALUNISERTIB] | > 20 | > 20 |
| CC(C)=CCC[C@]1(C)C=Cc2c(O)c3c(c(CC=C(C)C)c2O1)O[C@]12C(=C[C@@H]4C[C@H]1C(C)(C)O[C@@]2(C/C=C(/C)C(=O)O)C4=O)C3=O [GAMBOGIC ACID] | > 20 | > 20 |
| CN(C)CCC(c1ccccc1)C1CCCCC1 (stereo unspecified) [GAMFEXINE] | > 20 | > 20 |
| NCC(O)CC(=O)O (stereo not drawn) [GAMMA-AMINO-BETA-HYDROXYBUTYRIC ACID] | > 20 | > 20 |
| OC[C@H]1O[C@@H]2O[C@H]3[C@H](O)[C@@H](O)[C@@H](O[C@H]4[C@H](O)[C@@H](O)[C@@H](O[C@H]5[C@H](O)[C@@H](O)[C@@H](O[C@H]6[C@H](O)[C@@H](O)[C@@H](O[C@H]7[C@H](O)[C@@H](O)[C@@H](O[C@H]8[C@H](O)[C@@H](O)[C@@H](O[C@H]9[C@H](O)[C@@H](O)[C@@H](O[C@H]1[C@H](O)[C@H]2O)O[C@@H]9CO)O[C@@H]8CO)O[C@@H]7CO)O[C@@H]6CO)O[C@@H]5CO)O[C@@H]4CO)O[C@@H]3CO [GAMMA-CYCLODEXTRIN] | > 20 | > 20 |
| Nc1nc2c(ncn2COC(CO)CO)c(=O)[nH]1 [GANCICLOVIR] | > 20 | > 20 |
| CC(C)c1cc(-c2n[nH]c(=O)n2-c2ccc3c(ccn3C)c2)c(O)cc1O [GANETESPIB] | > 20 | > 20 |
| COc1c(N2CCNC(C)C2)c(F)cc2c(=O)c(C(=O)O)cn(C3CC3)c12 (stereo unspecified) [GATIFLOXACIN] | > 20 | > 20 |
| CC(=O)O[C@@H]1C[C@H]2C(C)(C)C(=O)C=C[C@]2(C)[C@H]2CC[C@@]3(C)[C@H](c4ccoc4)OC(=O)[C@H]4O[C@]43[C@@]21C [GEDUNIN] | > 20 | > 20 |
| C=C[C@]12CN(C)[C@@H]3[C@H]4CO[C@H](C[C@H]41)[C@]1(C(=O)Nc4ccccc41)[C@@H]32 [GELSEMINE] | > 20 | > 20 |
| CC(C)(CO)CCCCCCC(C)(C)CO [GEMCADIOL] | > 20 | > 20 |
| Nc1ccn([C@@H]2O[C@H](CO)[C@@H](O)C2(F)F)c(=O)n1 [GEMCITABINE] | > 20 | > 20 |
| Cc1ccc(C)c(OCCCC(C)(C)C(=O)O)c1 [GEMFIBROZIL] | > 20 | > 20 |
| O=c1c(-c2ccc(O)cc2)coc2cc(O)cc(O)c12 [GENISTEIN] | > 20 | > 20 |

| SMILES | IC50 [µM] | IC50 (read-out: pIC50 (converted)) [µM] |
| --- | --- | --- |
| CN[C@@H]1[C@@H](O)[C@@H](O[C@@H]2[C@@H](O)[C@H](O[C@H]3O[C@H]([C@@H](C)NC)CC[C@H]3N)[C@@H](N)C[C@H]2N)OC[C@]1(C)O [GENTAMICIN C1] | > 20 | > 20 |
| CN(C)c1ccc(C(=C2C=CC(=[N+](C)C)C=C2)c2ccc(N(C)C)cc2)cc1 [GENTIAN VIOLET] | > 20 | > 20 |
| O=C(O)c1cc(O)ccc1O [GENTISIC ACID] | > 20 | > 20 |
| C[C@H](N)Cc1cccc(O)c1 [GEPEFRINE] | > 20 | > 20 |
| CC1(C)CC(=O)N(CCCCN2CCN(c3ncccn3)CC2)C(=O)C1 [GEPIRONE] | > 20 | > 20 |
| C#C[C@]1(O)C=C[C@H]2[C@@H]3CCC4=CC(=O)CC[C@@H]4[C@H]3CC[C@@]21CC [GESTODENE] | > 20 | > 20 |
| C#C[C@]1(O)CC[C@H]2[C@@H]3CCC4=CC(=O)CCC4=C3C=C[C@@]21CC [GESTRINONE] | > 20 | > 20 |
| Fc1ccc2[nH]c3c(c2c1)CN(CCCc1cccnc1)CC3 [GEVOTROLINE] | > 20 | > 20 |
| C=C1C[C@]23C[C@@]1(O)CC[C@H]2[C@@]12C=C[C@H](O)[C@](C)(C(=O)O1)[C@H]2[C@@H]3C(=O)O [GIBBERELLIN GA3] | > 20 | > 20 |
| CCc1nc(C(N)=O)c(Nc2ccc(N3CCC(N4CCN(C)CC4)CC3)c(OC)c2)nc1NC1CCOCC1 [GILTERITINIB] | > 20 | > 20 |
| C[C@@H]1C(=O)O[C@H]2C[C@@]34[C@H]5C[C@@H](C(C)(C)C)[C@]36[C@@H](OC(=O)[C@@H]6O)O[C@@]4(C(=O)O5)[C@]21O [GINKGOLIDE A] | > 20 | > 20 |
| C[C@H]1O[C@@H](O[C@H]2[C@@H](O)C[C@H](O[C@H]3[C@@H](O)C[C@H](O[C@H]4CC[C@@]5(C)[C@H](CC[C@@H]6[C@@H]5CC[C@]5(C)[C@@H](C7=CC(=O)OC7)[C@@H](O)C[C@]65O)C4)O[C@@H]3C)O[C@@H]2C)C[C@H](O)[C@@H]1O [GITOXIN] | > 20 | > 20 |
| O=C(OCC(O)CO)c1ccccc1Nc1ccnc2cc(Cl)ccc12 (stereo unspecified) [GLAFENINE] | > 20 | > 20 |
| CC(C)c1nc(-c2ccccc2)cc(-c2ccc(F)cc2)c1/C=C/[C@@H]1C[C@@H](O)CC(=O)O1 [GLENVASTATIN] | > 20 | > 20 |
| COCCNCc1ccc(-c2cc3nccc(Oc4ccc(NC(=S)NC(=O)Cc5ccc(F)cc5)cc4F)c3s2)nc1 [GLESATINIB] | > 20 | > 20 |
| Cc1ccc(S(=O)(=O)NC(=O)NN2CC3CCCC3C2)cc1 (stereo unspecified) [GLICLAZIDE] | > 20 | > 20 |
| COc1ccc(F)cc1[C@H](C)NC(=O)Cc1ccc(S(=O)(=O)Nc2ncc(CC(C)C)cn2)cc1 [GLIFLUMIDE] | > 20 | > 20 |
| CCC1=C(C)CN(C(=O)NCCc2ccc(S(=O)(=O)NC(=O)N[C@H]3CC[C@H](C)CC3)cc2)C1=O [GLIMEPIRIDE] | > 20 | > 20 |
| Cc1cnc(C(=O)NCCc2ccc(S(=O)(=O)NC(=O)NC3CCCCC3)cc2)cn1 [GLIPIZIDE] | > 20 | > 20 |
| COc1ccc2c(c1)C(=O)N(CCc1ccc(S(=O)(=O)NC(=O)NC3CCCCC3)cc1)C(=O)C2(C)C [GLIQUIDONE] | > 20 | > 20 |
| COc1ccccc1C(=O)NCCc1ccc(S(=O)(=O)NC(=O)NC2CCCC2)cc1 [GLISENTIDE] | > 20 | > 20 |
